# Results published in publication PMC7139731, “Synthesis, Anticancer Evaluation and Structure-Activity Analysis of Novel (E)- 5-(2-Arylvinyl)-1,3,4-oxadiazol-2-yl)benzenesulfonamides” (International Journal of Molecular Sciences, 2020).
# Tests used:
# [1] = tested on: HaCaT noncancerous keratinocyte cell line; assay: MTT cell viability assay, 72 h, HaCaT; assay type: cell-based; conditions: for IC50: Homo sapiens, HaCaT, MTT assay, 72 h incubation, mean ± SD
# Protocol: (§1) Compounds 7–36 and 47–54 were tested regarding their effect on growth of three human cancer cell lines: colon cancer HCT-116, breast cancer MCF-7 and cervical cancer HeLa, as well as on noncancerous keratinocyte cell line HaCaT. Cell viability was measured with MTT assay after 72 h of incubation with tested compound in five concentration 1–100 μM. The MTT test enables us to quantify the living cells by measuring the activity of mitochondrial enzymes, enables reducing tetrazolium dye MTT to purple formazan. In this manner, IC50—molar concentration [µM] that inhibits 50% net cell growth—was determined (Table 1 and Table 2).
# (§2) All chemicals, if not stated otherwise, were obtained from Sigma-Aldrich (St. Louis, MO, USA). The MCF-7, HeLa and HaCaT cell lines were purchased from Cell Lines Services (Eppelheim, Germany), the HCT-116 cell line were obtained from ATCC (ATCC-No: CCL-247). Cells were cultured in Dulbecco’s modified Eagle’s medium (DMEM) supplemented with 10% fetal bovine serum, 2 mM glutamine, 100 units/mL penicillin, and 100 μg/mL streptomycin. Cultures were maintained in a humidified atmosphere with 5% CO2 at 37 °C in an incubator (HeraCell, Heraeus, Langenselbold, Germany). Cell viability was determined using the MTT [3-(4,5-dimethylthiazol-2-yl)-2,5-diphenyl-tetrazolium bromide] assay. Stock solutions of the studied compounds were obtained in 100% DMSO. […] Cells were seeded in 96-well plates at a density of 5 × 10^3 cells/well and treated for 72 h with the examined compounds in the concentration range 1–100 μM (1, 10, 25, 50 and 100 μM). Following treatment, MTT (0.5 mg/mL) was added to the medium and cells were further incubated for 2 h at 37 °C. Cells were lysed with DMSO and the absorbance of the formazan solution was measured at 550 nm with a plate reader Victor 1420 multilabel counter, (PerkinElmer, Inc. Waltham, MA USA). […] The experiment was performed in triplicate. Values are expressed as the mean ± SD of at least three independent experiments
# [2] = tested on: HeLa cells (cervical cancer); assay: MTT cell viability assay, 72 h, HeLa; assay type: cell-based, human; conditions: MTT assay, 72 h incubation, mean ± SD
# Protocol: as §1, §2
# [3] = tested on: HCT-116 cells (colon cancer); assay: MTT cell viability assay, 72 h, HCT-116; assay type: cell-based, human; conditions: for IC50: MTT assay, 72 h incubation, mean ± SD
# Protocol: as §1, §2
# [4] = tested on: MCF-7 cells (breast cancer); assay: MTT cell viability assay, 72 h, MCF-7; assay type: cell-based, human; conditions: MTT assay, 72 h incubation, mean ± SD
# Protocol: as §1, §2
SMILES,"IC50 ([2]; Homo sapiens, HeLa, 72 h)","IC50 ([3]; Homo sapiens, HCT-116, 72 h)","IC50 ([4]; Homo sapiens, MCF7, 72 h)",IC50 [1],further results
"NS(=O)(=O)c1cc(-c2nnc(/C=C/c3cccnc3)o2)c(Cl)cc1SCc1ccccc1 [Compound 26, (E)-2-(Benzylthio)-4-chloro-5-(5-(2-(pyridin-3-yl)vinyl)-1,3,4-oxadiazol-2-yl)benzenesulfonamide]",135 ± 4 µM,85 ± 5 µM,350 ± 17 µM,,
"N#Cc1ccc(/C=C/c2nnc(-c3ccc(Cl)cc3Cl)o2)cc1 [Compound 53, (E)-4-(2-(5-(2,4-Dichlorophenyl)-1,3,4-oxadiazol-2-yl)vinyl)benzonitrile]",225 ± 11 µM,106 ± 3 µM,142 ± 6 µM,,
"NS(=O)(=O)c1cc(-c2nnc(/C=C/c3cccnc3)o2)c(Cl)cc1Cl [Compound 25, (E)-2,4-Dichloro-5-(5-(2-(pyridin-3-yl)vinyl)-1,3,4-oxadiazol-2-yl)benzenesulfonamide]",570 ± 17 µM,220 ± 11 µM,760 ± 24 µM,,
"NS(=O)(=O)c1cc(-c2nnc(/C=C/c3ccncc3)o2)c(Cl)cc1SCc1ccccc1 [Compound 24, (E)-2-(Benzylthio)-4-chloro-5-(5-(2-(pyridin-4-yl)vinyl)-1,3,4-oxadiazol-2-yl)benzenesulfonamide]",135 ± 8 µM,31 ± 1 µM,225 ± 11 µM,150 ± 8 µM,
"NS(=O)(=O)c1cc(-c2nnc(/C=C/c3ccncc3)o2)c(Cl)cc1Cl [Compound 23, (E)-2,4-Dichloro-5-(5-(2-(pyridin-4-yl)vinyl)-1,3,4-oxadiazol-2-yl)benzenesulfonamide]",740 ± 37 µM,255 ± 13 µM,640 ± 13 µM,,
"NS(=O)(=O)c1cc(-c2nnc(/C=C/c3ccccc3)o2)c(Cl)cc1Cl [Compound 7, (E)-2,4-Dichloro-5-(5-styryl-1,3,4-oxadiazol-2-yl)benzenesulfonamide]",455 ± 14 µM,86 ± 3 µM,165 ± 5 µM,,
"NS(=O)(=O)c1cc(-c2nnc(/C=C/c3cccs3)o2)c(Cl)cc1Cl [Compound 29, (E)-2,4-Dichloro-5-(5-(2-(thiophen-2-yl)vinyl)-1,3,4-oxadiazol-2-yl)benzenesulfonamide]",245 ± 12 µM,108 ± 4 µM,175 ± 12 µM,,
"Clc1ccc(-c2nnc(/C=C/c3ccccc3)o2)c(Cl)c1 [Compound 51, (E)-2-(2,4-Dichlorophenyl)-5-styryl-1,3,4-oxadiazole]",190 ± 10 µM,92 ± 2 µM,125 ± 6 µM,,
"Clc1ccc(/C=C/c2nnc(-c3ccc(Cl)cc3Cl)o2)cc1 [Compound 52, (E)-2-(4-Chlorostyryl)-5-(2,4-dichlorophenyl)-1,3,4-oxadiazole]",215 ± 6 µM,64 ± 3 µM,110 ± 6 µM,,
"NS(=O)(=O)c1cc(-c2nnc(/C=C/c3ccccn3)o2)c(Cl)cc1Cl [Compound 27, (E)-2,4-Dichloro-5-(5-(2-(pyridin-2-yl)vinyl)-1,3,4-oxadiazol-2-yl)benzenesulfonamide]",170 ± 5 µM,117 ± 4 µM,110 ± 2 µM,,
"NS(=O)(=O)c1ccc(-c2nnc(/C=C/c3ccc(C(F)(F)F)cc3)o2)cc1 [Compound 50, (E)-4-(5-(4-(Trifluoromethyl)styryl)-1,3,4-oxadiazol-2-yl)benzenesulfonamide]",520 ± 25 µM,155 ± 7 µM,280 ± 15 µM,,
"NS(=O)(=O)c1ccc(-c2nnc(/C=C/c3ccccc3)o2)cc1 [Compound 47, (E)-4-(5-Styryl-1,3,4-oxadiazol-2-yl)benzenesulfonamide]",130 ± 7 µM,185 ± 11 µM,168 ± 8 µM,,
NS(=O)(=O)c1cc(-c2nnc(/C=C/c3cccc(Cl)c3)o2)c(Cl)cc1SCc1ccccc1 [Compound 10],,,,,activity against HaCaT compared with cancer lines ([1]; in words): at the same level as against cancer lines

# Continued, in another order:
"IC50 ([2]; Homo sapiens, HeLa, 72 h)","IC50 ([3]; Homo sapiens, HCT-116, 72 h)","IC50 ([4]; Homo sapiens, MCF7, 72 h)",SMILES,IC50 [1],further results
58 ± 2 µM,17 ± 1 µM,55 ± 3 µM,"NS(=O)(=O)c1cc(-c2nnc(/C=C/c3ccc([N+](=O)[O-])s3)o2)c(Cl)cc1SCc1ccccc1 [Compound 32, (E)-2-(Benzylthio)-4-chloro-5-(5-(2-(5-nitrothiophen-2-yl)vinyl)-1,3,4-oxadiazol-2-yl)benzenesulfonamide]",57 ± 1 µM,
34 ± 2 µM,34 ± 1 µM,41 ± 1 µM,"NS(=O)(=O)c1cc(-c2nnc(/C=C/c3ccc(Br)cc3)o2)c(Cl)cc1Cl [Compound 15, (E)-5-(5-(4-Bromostyryl)-1,3,4-oxadiazol-2-yl)-2,4-dichlorobenzenesulfonamide]",55 ± 2 µM,
87 ± 3 µM,32 ± 2 µM,66 ± 2 µM,"NS(=O)(=O)c1cc(-c2nnc(/C=C/c3cccs3)o2)c(Cl)cc1SCc1ccccc1 [Compound 30, (E)-2-(Benzylthio)-4-chloro-5-(5-(2-(thiophen-2-yl)vinyl)-1,3,4-oxadiazol-2-yl)benzenesulfonamide]",85 ± 4 µM,
104 ± 3 µM,98 ± 1 µM,102 ± 5 µM,"FC(F)(F)c1ccc(/C=C/c2nnc(-c3ccc(Cl)cc3Cl)o2)cc1 [Compound 54, (E)-2-(2,4-Dichlorophenyl)-5-(4-(trifluoromethyl)styryl)-1,3,4-oxadiazole]",,
90 ± 2 µM,18 ± 1 µM,75 ± 2 µM,"NS(=O)(=O)c1cc(-c2nnc(/C=C/c3ccc(C(F)(F)F)cc3)o2)c(Cl)cc1Cl [Compound 21, (E)-2,4-Dichloro-5-(5-(4-(trifluoromethyl)styryl)-1,3,4-oxadiazol-2-yl)benzenesulfonamide]",95 ± 4 µM,
25 ± 3 µM,105 ± 5 µM,76 ± 4 µM,"NS(=O)(=O)c1ccc(-c2nnc(/C=C/c3ccc(Cl)cc3)o2)cc1 [Compound 48, (E)-4-(5-(4-chlorostyryl)-1,3,4-oxadiazol-2-yl)benzenesulfonamide]",95 ± 4 µM,
42 ± 1 µM,22 ± 1 µM,28 ± 1 µM,"NS(=O)(=O)c1cc(-c2nnc(/C=C/c3ccc(Cl)cc3)o2)c(Cl)cc1Cl [Compound 11, (E)-2,4-Dichloro-5-(5-(4-chlorostyryl)-1,3,4-oxadiazol-2-yl)benzenesulfonamide]",51 ± 3 µM,
25 ± 1 µM,16 ± 1 µM,92 ± 5 µM,"NS(=O)(=O)c1cc(-c2nnc(/C=C/c3c(Cl)cccc3Cl)o2)c(Cl)cc1Cl [Compound 13, (E)-2,4-Dichloro-5-(5-(2,6-dichlorostyryl)-1,3,4-oxadiazol-2-yl)benzenesulfonamide]",95 ± 2 µM,
99 ± 1 µM,49 ± 1 µM,73 ± 3 µM,"NS(=O)(=O)c1cc(-c2nnc(/C=C/c3ccc(O)cc3)o2)c(Cl)cc1Cl [Compound 17, (E)-2,4-Dichloro-5-(5-(4-hydroxystyryl)-1,3,4-oxadiazol-2-yl)benzenesulfonamide]",100 ± 5 µM,
9 to 12 µM,9 to 12 µM,9 to 12 µM,"N#Cc1ccc(/C=C/c2nnc(-c3cc(S(N)(=O)=O)c(SCc4ccccc4)cc3Cl)o2)cc1 [Compound 20, (E)-2-(Benzylthio)-4-chloro-5-(5-(4-cyanostyryl)-1,3,4-oxadiazol-2-yl)benzenesulfonamide]",20 ± 1 µM,IC50 [2]: 12.2 ± 0.5 µM; IC50 [3]: 10.3 ± 0.2 µM; IC50 [4]: 8.9 ± 0.5 µM
69 ± 3 µM,4 µM,150 ± 8 µM,"NS(=O)(=O)c1cc(-c2nnc(/C=C/c3ccc([N+](=O)[O-])o3)o2)c(Cl)cc1SCc1ccccc1 [Compound 35, (E)-2-(Benzylthio)-4-chloro-5-(5-(2-(5-nitrofuran-2-yl)vinyl)-1,3,4-oxadiazol-2-yl)benzenesulfonamide]",87 ± 4 µM,"selectivity index SI (IC50 for HaCaT cell line/IC50 for cancerous cell line) ([1]; cancer line not given, active derivatives (IC50 for cancer line ≤ 25 µM)): 22; IC50 [3]: 4.1 ± 0.2 µM; times more active against HCT-116 than HaCaT ([3]; selectivity HCT-116 vs HaCaT): 22 times; times more active against HCT-116 than HeLa ([3]; selectivity HCT-116 vs HeLa): 17 times; times more active against HCT-116 than MCF-7 ([3]; selectivity HCT-116 vs MCF-7): 37 times"
99 ± 3 µM,32 ± 2 µM,75 ± 4 µM,"N#Cc1ccc(/C=C/c2nnc(-c3ccc(S(N)(=O)=O)cc3)o2)cc1 [Compound 49, (E)-4-(5-(4-Cyanostyryl)-1,3,4-oxadiazol-2-yl)benzenesulfonamide]",98 ± 4 µM,
